{
  "source": "patent US20080153896A1",
  "about": "“Polymorphic Forms of an HMG-CoA Reductase Inhibitor and Uses Thereof” (priority 2006, published 2008)",
  "key": {"[1]": {"target": "CYP3A4 (cytochrome P450 3A4) (Homo sapiens, UniProt P08684)", "sequence (P08684 whole entry)": "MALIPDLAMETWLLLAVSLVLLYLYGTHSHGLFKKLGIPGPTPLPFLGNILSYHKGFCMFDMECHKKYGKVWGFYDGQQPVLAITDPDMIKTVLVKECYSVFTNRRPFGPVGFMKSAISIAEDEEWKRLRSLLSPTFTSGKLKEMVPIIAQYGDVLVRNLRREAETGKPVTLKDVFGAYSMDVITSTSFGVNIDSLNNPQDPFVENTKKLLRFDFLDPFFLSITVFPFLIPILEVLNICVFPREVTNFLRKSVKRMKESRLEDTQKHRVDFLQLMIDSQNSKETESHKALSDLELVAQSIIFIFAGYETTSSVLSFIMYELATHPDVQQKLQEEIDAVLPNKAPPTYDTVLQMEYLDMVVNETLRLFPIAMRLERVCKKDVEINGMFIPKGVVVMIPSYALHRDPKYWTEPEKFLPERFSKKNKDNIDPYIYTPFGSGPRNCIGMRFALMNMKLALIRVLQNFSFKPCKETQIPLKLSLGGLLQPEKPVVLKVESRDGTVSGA", "test": "Substrate for metabolic enzyme CYP3A4"}, "[2]": {"target": "T1, 3-hydroxy-3-methylglutaryl-coenzyme A (HMG-CoA) reductase (Homo sapiens, UniProt P04035)", "T1 sequence (P04035 1-888)": "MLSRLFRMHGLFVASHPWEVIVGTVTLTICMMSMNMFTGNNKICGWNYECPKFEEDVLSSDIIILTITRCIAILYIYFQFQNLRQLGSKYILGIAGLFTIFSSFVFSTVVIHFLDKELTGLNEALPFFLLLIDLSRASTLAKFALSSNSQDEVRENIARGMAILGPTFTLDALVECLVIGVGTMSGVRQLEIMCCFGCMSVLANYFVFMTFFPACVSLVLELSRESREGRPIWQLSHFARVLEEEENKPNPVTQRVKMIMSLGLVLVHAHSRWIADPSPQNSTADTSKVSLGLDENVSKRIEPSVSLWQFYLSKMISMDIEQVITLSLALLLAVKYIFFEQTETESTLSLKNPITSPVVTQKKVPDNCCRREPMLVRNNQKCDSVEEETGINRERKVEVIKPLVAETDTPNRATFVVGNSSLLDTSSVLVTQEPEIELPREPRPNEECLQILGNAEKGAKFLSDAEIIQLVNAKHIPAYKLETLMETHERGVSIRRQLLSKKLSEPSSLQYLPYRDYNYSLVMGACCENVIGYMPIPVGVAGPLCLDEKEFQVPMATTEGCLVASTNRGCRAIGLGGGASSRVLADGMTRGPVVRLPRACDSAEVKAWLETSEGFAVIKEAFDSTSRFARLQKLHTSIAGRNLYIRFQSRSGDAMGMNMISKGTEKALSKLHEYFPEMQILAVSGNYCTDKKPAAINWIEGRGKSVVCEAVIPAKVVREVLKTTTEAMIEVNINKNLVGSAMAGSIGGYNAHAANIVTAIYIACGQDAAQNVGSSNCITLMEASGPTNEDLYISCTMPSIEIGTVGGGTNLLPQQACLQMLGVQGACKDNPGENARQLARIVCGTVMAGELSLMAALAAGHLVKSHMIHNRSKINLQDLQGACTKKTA", "test": "HMG-CoA reductase inhibition, potency compared with atorvastatin", "type": "biochemical", "details": "vs atorvastatin"}, "rat primary hepatocytes": {"tested_on": "rat primary hepatocytes", "test": "Inhibition of cholesterol synthesis in rat primary hepatocytes", "type": "cell-based", "details": "vs atorvastatin"}, "cholesterol synthesis": {"tested_on": "cholesterol synthesis", "test": "Inhibition of cholesterol synthesis in an in vivo rat model", "details": "vs atorvastatin"}, "[3]": {"tested_on": "NRK-49F (Fibroblast) and L6 (Myoblast)", "test": "Inhibition of cholesterol synthesis in extra hepatic cells/cell lines"}, "[4]": {"test": "Intrinsic clearance in human liver microsomes", "details": "vs atorvastatin"}},
  "data": [
    {"substance": "(3R,5R)-7-[2-(4-fluorophenyl)-5-isopropyl-3-phenyl-4-[(4-hydroxymethylphenylamino)carbonyl]-pyrrol-1-yl]-3,5-dihydroxy-heptanoic acid hemi calcium salt [compound of Formula I]", "values": [
      {"measurement": "substrate for the metabolic enzyme CYP3A4", "setting": "[1]", "result": "not a major substrate"},
      {"measurement": "potency relative to atorvastatin", "setting": "[2]", "result": "equipotent to atorvastatin"},
      {"measurement": "potency in the inhibition of cholesterol synthesis", "setting": "rat primary hepatocytes", "result": "greater potency"},
      {"measurement": "potency in inhibiting cholesterol synthesis", "setting": "cholesterol synthesis", "result": "more potent than atorvastatin"},
      {"measurement": "selectivity, inhibition of cholesterol synthesis in rat primary hepatocytes over extra hepatic cells/cell lines", "setting": "[3]; NRK-49F and L6, vs atorvastatin", "result": "greater"},
      {"measurement": "hepatoselectivity", "setting": "[3]; vs atorvastatin", "result": "better hepatoselectivity"},
      {"measurement": "intrinsic clearance", "setting": "[4]", "result": "significantly less than atorvastatin"}
    ]}
  ]
}
